Reference: ChEMBL document CHEMBL5465560, “Selectivity Literature for EUbOPEN Chemogenomic Library” (2024)
One block for each molecule: values may come before it.

Tests used:
[1] = target: T1, Mitogen-activated protein kinase kinase kinase 19 (Homo sapiens) (UniProt Q56UN5); assay: Selectivity interaction (Ambit KINOMEscan and KiNATiv profiling in Jurkat cells) EUB0000090b MAP3K19; assay type: cell-based; details: at 1 µM
T1 sequence (whole entry): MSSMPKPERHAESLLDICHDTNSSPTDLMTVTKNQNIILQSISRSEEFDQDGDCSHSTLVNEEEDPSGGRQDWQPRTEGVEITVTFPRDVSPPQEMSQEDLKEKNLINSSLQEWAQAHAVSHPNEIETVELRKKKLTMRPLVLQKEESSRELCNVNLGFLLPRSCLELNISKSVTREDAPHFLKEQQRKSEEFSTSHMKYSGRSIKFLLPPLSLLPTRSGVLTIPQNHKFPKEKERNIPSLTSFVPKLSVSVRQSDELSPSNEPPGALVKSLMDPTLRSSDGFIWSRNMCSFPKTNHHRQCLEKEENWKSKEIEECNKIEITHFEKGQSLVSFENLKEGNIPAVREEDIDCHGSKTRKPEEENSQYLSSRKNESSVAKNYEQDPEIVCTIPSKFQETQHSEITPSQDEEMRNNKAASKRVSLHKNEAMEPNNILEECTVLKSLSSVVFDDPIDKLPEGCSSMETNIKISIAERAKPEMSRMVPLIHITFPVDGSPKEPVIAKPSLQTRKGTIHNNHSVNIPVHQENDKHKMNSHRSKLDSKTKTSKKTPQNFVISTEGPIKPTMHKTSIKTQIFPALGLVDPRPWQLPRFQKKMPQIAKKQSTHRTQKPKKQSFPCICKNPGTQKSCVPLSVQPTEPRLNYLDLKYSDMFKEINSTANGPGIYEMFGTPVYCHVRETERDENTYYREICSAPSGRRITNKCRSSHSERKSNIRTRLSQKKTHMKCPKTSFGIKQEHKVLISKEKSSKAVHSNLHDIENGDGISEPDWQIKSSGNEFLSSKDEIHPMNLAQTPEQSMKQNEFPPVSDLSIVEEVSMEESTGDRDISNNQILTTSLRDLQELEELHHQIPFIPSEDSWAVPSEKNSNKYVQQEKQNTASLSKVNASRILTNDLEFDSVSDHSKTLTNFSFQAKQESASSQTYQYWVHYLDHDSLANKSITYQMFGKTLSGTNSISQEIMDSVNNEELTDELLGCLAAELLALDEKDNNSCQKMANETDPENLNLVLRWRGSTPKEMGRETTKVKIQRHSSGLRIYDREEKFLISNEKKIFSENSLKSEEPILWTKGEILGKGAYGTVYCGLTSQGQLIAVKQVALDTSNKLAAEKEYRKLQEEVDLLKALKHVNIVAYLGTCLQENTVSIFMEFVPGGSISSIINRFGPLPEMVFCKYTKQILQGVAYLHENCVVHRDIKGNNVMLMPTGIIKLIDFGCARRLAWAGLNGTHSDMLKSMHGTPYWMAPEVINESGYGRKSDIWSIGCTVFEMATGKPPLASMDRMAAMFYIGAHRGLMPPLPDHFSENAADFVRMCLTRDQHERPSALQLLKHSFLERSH

[2] = target: Ribosomal protein S6 kinase alpha-3 (Homo sapiens, UniProt P51812); assay: Selectivity interaction (ActivX KiNativ screen (kinase selectivity in THP-1 cell lysates)) EUB0000639a RPS6KA3; assay type: subcellular; details: lysate, at 1 µM
Sequence of Ribosomal protein S6 kinase alpha-3 (P51812 whole entry): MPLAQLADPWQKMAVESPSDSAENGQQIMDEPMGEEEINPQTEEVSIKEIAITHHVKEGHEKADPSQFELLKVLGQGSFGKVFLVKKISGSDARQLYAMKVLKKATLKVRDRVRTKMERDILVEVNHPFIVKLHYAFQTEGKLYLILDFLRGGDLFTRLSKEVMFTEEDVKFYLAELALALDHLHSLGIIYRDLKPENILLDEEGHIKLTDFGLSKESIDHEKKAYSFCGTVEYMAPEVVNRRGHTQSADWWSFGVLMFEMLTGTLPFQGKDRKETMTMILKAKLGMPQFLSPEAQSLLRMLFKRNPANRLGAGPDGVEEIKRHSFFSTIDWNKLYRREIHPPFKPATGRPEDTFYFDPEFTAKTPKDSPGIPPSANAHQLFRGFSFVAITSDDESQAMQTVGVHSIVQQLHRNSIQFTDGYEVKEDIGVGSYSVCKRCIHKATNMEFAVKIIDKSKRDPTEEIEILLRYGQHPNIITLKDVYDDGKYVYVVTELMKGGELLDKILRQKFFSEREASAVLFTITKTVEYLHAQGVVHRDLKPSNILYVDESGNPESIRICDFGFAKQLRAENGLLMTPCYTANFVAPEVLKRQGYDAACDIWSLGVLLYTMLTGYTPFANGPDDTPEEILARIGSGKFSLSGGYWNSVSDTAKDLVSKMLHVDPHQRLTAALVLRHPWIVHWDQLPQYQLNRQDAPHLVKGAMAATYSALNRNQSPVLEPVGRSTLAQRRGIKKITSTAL

[3] = target: Ribosomal protein S6 kinase alpha-4 (Homo sapiens) (UniProt O75676); assay: Selectivity interaction (Kinase panel (Z-LYTE Assay)) EUB0001632a RPS6KA4; details: at 10 µM
Sequence of Ribosomal protein S6 kinase alpha-4 (Homo sapiens) (O75676 whole entry, looked up): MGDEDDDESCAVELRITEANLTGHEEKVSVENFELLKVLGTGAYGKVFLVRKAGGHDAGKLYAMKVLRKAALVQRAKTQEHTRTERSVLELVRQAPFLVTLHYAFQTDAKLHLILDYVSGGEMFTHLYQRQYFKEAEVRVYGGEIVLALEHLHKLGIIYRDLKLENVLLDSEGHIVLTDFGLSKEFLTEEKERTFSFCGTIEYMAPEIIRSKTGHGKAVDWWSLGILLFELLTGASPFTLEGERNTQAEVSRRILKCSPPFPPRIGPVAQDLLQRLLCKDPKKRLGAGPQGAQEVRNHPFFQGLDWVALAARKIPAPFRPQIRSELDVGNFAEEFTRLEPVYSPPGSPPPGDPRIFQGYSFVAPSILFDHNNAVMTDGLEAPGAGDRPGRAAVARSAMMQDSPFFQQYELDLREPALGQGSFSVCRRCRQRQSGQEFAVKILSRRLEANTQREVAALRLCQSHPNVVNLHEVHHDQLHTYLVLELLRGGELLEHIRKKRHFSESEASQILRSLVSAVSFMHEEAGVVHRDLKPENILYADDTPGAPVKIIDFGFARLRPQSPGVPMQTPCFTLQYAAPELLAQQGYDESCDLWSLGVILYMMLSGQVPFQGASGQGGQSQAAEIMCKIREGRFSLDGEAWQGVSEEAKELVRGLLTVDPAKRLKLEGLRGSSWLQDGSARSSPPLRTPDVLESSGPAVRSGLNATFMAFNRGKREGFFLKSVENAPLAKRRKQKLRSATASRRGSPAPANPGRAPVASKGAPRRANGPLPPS

[4] = target: Serine/threonine-protein kinase 26 (Homo sapiens, UniProt Q9P289); details: at 10 µM
Sequence of Serine/threonine-protein kinase 26 (Q9P289 2-416 limits assumed): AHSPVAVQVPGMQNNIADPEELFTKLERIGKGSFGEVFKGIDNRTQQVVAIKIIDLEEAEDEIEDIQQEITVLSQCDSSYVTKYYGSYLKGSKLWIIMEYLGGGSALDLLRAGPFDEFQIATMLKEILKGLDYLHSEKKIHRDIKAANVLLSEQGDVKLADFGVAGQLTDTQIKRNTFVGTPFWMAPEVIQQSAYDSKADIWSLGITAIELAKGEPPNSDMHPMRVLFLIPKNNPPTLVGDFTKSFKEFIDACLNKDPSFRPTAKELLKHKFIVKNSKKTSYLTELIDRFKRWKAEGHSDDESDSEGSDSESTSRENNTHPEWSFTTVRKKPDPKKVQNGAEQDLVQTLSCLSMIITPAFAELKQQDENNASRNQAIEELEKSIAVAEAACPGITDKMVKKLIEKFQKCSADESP

[5] = target: T2, Serine/threonine-protein kinase TBK1 (Homo sapiens) (UniProt Q9UHD2); assay: Selectivity interaction (KinomeScan (DiscoverX)) EUB0000229b TBK1; details: at 10 µM
T2 sequence (whole entry): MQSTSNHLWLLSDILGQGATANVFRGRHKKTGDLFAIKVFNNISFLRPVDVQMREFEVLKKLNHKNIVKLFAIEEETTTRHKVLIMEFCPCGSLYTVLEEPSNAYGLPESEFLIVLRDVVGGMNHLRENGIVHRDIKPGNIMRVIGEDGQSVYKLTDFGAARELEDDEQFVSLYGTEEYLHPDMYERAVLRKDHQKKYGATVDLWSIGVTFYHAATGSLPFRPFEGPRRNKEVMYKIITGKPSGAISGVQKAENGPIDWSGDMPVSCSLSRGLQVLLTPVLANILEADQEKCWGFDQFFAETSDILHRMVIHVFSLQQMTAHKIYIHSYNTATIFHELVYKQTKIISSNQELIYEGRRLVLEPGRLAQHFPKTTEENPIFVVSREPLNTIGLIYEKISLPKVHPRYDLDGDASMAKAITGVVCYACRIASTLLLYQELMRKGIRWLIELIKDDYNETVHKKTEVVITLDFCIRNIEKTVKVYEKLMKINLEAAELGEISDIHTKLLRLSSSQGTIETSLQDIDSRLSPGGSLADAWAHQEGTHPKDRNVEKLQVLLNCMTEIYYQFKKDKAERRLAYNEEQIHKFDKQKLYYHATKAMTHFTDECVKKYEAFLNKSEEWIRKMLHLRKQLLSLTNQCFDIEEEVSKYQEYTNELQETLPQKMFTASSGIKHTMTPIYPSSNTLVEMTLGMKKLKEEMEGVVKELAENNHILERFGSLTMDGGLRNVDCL

[6] = target: Cyclin-dependent kinase 17 (Homo sapiens) (UniProt Q00537); assay: Selectivity interaction (KinomeScan (DiscoverX)) EUB0000092b CDK17; details: at 10 µM
Sequence of Cyclin-dependent kinase 17 (Homo sapiens) (Q00537 whole entry, looked up): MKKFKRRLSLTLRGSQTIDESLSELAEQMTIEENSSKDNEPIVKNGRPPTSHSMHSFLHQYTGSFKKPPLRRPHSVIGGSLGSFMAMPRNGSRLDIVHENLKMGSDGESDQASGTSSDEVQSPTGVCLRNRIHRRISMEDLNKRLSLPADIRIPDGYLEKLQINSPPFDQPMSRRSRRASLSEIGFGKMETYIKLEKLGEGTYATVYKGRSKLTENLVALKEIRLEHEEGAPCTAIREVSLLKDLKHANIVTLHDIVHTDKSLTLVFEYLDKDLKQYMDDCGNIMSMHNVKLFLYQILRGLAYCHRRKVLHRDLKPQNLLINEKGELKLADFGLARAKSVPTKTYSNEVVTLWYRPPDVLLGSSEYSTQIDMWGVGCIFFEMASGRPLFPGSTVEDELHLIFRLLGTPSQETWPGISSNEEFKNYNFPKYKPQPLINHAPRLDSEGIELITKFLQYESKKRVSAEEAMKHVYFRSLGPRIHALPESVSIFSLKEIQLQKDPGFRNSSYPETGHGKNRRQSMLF

[7] = target: T3, TGF-beta receptor type-1 (Homo sapiens) (UniProt P36897); assay: Selectivity interaction (KinomeScan (DiscoverX)) EUB0000655a TGFBR1; details: at 10 µM
T3 sequence (whole entry): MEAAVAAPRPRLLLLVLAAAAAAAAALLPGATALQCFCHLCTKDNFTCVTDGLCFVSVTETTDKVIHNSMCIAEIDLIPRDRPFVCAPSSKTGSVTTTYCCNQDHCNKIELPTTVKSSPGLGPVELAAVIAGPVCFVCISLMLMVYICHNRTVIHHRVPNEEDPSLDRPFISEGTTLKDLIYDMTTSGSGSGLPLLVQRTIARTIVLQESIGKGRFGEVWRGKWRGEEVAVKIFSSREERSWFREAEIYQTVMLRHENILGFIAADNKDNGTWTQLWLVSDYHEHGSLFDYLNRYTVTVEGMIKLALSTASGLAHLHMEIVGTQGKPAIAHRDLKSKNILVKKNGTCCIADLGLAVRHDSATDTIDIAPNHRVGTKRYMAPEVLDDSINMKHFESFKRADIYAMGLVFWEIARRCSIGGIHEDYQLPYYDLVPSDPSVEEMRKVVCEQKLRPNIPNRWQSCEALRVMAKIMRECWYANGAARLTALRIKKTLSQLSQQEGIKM

[8] = target: Rho-associated protein kinase 1 (Homo sapiens) (UniProt Q13464); assay: Selectivity interaction (KinomeScan (DiscoverX)) EUB0000607a ROCK1; details: at 10 µM
Sequence of Rho-associated protein kinase 1 (Homo sapiens) (Q13464 2-1354 limits assumed): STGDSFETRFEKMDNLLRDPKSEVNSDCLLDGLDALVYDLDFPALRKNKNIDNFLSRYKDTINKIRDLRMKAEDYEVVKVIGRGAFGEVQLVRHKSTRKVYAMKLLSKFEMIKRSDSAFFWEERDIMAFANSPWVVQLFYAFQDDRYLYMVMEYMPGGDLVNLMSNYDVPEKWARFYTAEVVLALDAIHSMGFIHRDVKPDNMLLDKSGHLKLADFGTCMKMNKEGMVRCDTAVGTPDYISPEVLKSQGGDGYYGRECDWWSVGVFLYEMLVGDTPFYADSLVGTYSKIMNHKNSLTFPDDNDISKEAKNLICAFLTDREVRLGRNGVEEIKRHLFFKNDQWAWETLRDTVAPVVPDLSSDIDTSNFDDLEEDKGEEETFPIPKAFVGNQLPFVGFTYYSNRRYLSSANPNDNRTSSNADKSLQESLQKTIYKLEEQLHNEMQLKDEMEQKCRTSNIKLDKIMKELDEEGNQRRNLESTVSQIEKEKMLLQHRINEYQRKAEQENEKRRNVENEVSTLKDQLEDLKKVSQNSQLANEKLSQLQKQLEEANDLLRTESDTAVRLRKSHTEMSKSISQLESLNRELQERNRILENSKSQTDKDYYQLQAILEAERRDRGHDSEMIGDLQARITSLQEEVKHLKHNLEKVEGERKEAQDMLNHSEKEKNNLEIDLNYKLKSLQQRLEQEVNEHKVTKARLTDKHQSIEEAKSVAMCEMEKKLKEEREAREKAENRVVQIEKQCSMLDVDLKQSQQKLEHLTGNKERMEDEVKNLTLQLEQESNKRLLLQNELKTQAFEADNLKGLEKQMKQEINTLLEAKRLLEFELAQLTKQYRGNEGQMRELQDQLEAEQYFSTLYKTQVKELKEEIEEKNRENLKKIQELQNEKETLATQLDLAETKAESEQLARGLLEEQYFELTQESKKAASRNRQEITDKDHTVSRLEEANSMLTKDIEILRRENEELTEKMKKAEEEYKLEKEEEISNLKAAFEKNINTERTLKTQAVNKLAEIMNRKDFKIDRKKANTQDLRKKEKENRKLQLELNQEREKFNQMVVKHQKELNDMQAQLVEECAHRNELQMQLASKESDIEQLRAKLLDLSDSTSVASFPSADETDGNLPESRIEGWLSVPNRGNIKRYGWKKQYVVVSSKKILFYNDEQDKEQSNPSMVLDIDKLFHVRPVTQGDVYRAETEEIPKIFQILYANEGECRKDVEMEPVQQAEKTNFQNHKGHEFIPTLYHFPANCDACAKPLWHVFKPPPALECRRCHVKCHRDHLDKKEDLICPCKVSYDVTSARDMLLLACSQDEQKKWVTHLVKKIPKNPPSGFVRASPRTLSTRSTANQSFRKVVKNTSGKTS

SMILES: CN(C)C/C=C/C(=O)Nc1ccc(C(=O)N2CCCC(Nc3ncc(Cl)c(-c4c[nH]c5ccccc45)n3)C2)cc1 (stereo not drawn)
% of control [1]: 98%

% of inhibition [2]: 6.6%
SMILES: CC[C@@H]1[C@H](F)C(=O)N[C@@H]1COc1nccc2cc(C(N)=O)c(OC)cc12 [ZIMLOVISERTIB]

% of control [3]: 0.55%
SMILES: Cn1cc(-n2cnc3c(NCc4nc5cc(Cl)c(Cl)cc5[nH]4)nc(N4CCOCC4)nc32)cn1

% of control [4]: 100%
SMILES: CCN(CC)CCCCNc1ncc2cc(-c3cc(OC)cc(OC)c3)c(NC(=O)NC(C)(C)C)nc2n1

SMILES: COc1cc(N(C)c2ccnc3ccc(C(F)(F)F)cc23)cc(OC)c1OC
% binding [5]: 72%

SMILES: CCC(=O)N1CCN(c2ccc(-n3c(=O)ccc4cnc5ccc(-c6cnc7ccccc7c6)cc5c43)cc2C(F)(F)F)CC1
% of control [6]: 97%

SMILES: CN(C)CCOc1ccc(-c2nc(-c3ccncc3)c(-c3ccc4c(c3)CC/C4=N\O)[nH]2)cc1
% of control [7]: 17%

SMILES: CNC(=O)Nc1ccc(-c2nc(N3CC4CCC(C3)O4)c3cnn(C4CCC5(CC4)OCCO5)c3n2)cc1
% of control [8]: 100%
